# Patent US20210379100A1, “USE OF FUNCTIONALIZED CALCIUM CARBONATE AS ACTIVE INGREDIENT” (OMYA INTERNATIONAL AG, priority 2018, published 2021)
# Test: Particle size distribution (Malvern Mastersizer 3000 laser diffraction / Sedigraph sedimentation)
# Type: physicochemical
# Description: The “particle size” of all particulate materials disclosed herein, with the exception of ground calcium carbonate and precipitated calcium carbonate, is described as volume-based particle size distribution dx(vol). Therein, the value dx(vol) represents the diameter relative to which x % by volume of the particles have diameters less than dx(vol). This means that, for example, the d20(vol) value is the particle size at which 20 vol % of all particles are smaller than that particle size. The d50(vol) value is thus the volume median particle size, i.e. 50 vol % of all particles are smaller than that particle size and the d98(vol) value, referred to as volume-based top cut, is the particle size at which 98 vol % of all particles are smaller than that particle size. […]
# All particle sizes described herein, with the exception of the particle sizes of the ground calcium carbonate that was used for the production of the functionalized calcium carbonate and that of precipitated calcium carbonate, refer to the volume-based particle size distribution dx(vol). The volume-based median particle size d50(vol) and top cut d98(vol) are evaluated using a Malvern Mastersizer 3000 Laser Diffraction System (Malvern Instruments Plc., Great Britain). The raw data obtained by the measurement is analyzed using the Fraunhofer theory. […]
structure (smiles),measurement,setting,value
O.O.O.O.O=C([O-])CC(O)(CC(=O)[O-])C(=O)[O-].O=C([O-])CC(O)(CC(=O)[O-])C(=O)[O-].[Ca+2].[Ca+2].[Ca+2] [Calcium citrate tetrahydrate],d50,median particle size,6.83 μm
same,d98,top cut particle size,80 μm
